{
  "source": "patent US20200239530A1",
  "about": "“COMPOUNDS AND METHODS OF MODULATING PROTEIN DEGRADATION” (Vividion Therapeutics, Inc., priority 2017, published 2020)",
  "test_in_all_cases": "Cysteine liganding, probe competition",
  "assay_type_in_all_cases": "binding",
  "key": {"[1]": {"target": "T1, B-cell lymphoma 6 protein (BCL6) (Homo sapiens, UniProt P41182)", "T1 construct": "Cells were resuspended in cold PBS on ice and sonicated with a probe sonicator to achieve lysis; endogenous in cells", "method_in_brief": "(§1)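 Probe competition in native proteome: 5 mg/ml lysate, compound 1 hr 25° C, then desthiobiotin iodoacetamide (10 mM stock) 1 hr 25° C; acetone ppt, urea/DTT reduction, iodoacetamide alkylation, trypsin, streptavidin pull-down.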"}, "[2]": {"target": "T2, TNF receptor-associated factor 6 (TRAF6) (Homo sapiens, UniProt Q9Y4K3)", "T2 construct": "Cells were resuspended in cold PBS on ice and sonicated with a probe sonicator to achieve lysis; endogenous in cells", "details": "read-out: percent_inhibition", "method_in_brief": "as §1"}, "[3]": {"target": "T3, CTSC Dipeptidyl peptidase 1 (Homo sapiens, UniProt P53634)", "T3 construct": "200 μL of lysate containing 5 mg/ml proteome was treated with 2 μL of 100× compound stock; endogenous in cells", "T3 sequence (P53634 25-463)": "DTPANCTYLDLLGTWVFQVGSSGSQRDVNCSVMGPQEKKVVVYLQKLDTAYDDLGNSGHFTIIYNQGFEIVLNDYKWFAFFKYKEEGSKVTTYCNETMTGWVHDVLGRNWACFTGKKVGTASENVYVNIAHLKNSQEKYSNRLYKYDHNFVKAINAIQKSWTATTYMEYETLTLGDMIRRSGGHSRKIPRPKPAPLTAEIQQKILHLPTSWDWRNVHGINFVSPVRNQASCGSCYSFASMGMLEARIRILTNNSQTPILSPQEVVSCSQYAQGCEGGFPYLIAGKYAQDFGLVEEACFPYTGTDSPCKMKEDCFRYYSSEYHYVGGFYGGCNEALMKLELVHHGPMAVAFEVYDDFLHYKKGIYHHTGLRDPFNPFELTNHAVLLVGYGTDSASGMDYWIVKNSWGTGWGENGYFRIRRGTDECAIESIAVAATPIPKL", "method_in_brief": "as §1"}, "[4]": {"target": "T4, INTS1 Integrator complex subunit 1 (Homo sapiens, UniProt Q8N201)", "T4 construct": "Cells were resuspended in cold PBS on ice and sonicated with a probe sonicator to achieve lysis; endogenous in cells", "T4 sequence (Q8N201 whole entry, one chain of several)": "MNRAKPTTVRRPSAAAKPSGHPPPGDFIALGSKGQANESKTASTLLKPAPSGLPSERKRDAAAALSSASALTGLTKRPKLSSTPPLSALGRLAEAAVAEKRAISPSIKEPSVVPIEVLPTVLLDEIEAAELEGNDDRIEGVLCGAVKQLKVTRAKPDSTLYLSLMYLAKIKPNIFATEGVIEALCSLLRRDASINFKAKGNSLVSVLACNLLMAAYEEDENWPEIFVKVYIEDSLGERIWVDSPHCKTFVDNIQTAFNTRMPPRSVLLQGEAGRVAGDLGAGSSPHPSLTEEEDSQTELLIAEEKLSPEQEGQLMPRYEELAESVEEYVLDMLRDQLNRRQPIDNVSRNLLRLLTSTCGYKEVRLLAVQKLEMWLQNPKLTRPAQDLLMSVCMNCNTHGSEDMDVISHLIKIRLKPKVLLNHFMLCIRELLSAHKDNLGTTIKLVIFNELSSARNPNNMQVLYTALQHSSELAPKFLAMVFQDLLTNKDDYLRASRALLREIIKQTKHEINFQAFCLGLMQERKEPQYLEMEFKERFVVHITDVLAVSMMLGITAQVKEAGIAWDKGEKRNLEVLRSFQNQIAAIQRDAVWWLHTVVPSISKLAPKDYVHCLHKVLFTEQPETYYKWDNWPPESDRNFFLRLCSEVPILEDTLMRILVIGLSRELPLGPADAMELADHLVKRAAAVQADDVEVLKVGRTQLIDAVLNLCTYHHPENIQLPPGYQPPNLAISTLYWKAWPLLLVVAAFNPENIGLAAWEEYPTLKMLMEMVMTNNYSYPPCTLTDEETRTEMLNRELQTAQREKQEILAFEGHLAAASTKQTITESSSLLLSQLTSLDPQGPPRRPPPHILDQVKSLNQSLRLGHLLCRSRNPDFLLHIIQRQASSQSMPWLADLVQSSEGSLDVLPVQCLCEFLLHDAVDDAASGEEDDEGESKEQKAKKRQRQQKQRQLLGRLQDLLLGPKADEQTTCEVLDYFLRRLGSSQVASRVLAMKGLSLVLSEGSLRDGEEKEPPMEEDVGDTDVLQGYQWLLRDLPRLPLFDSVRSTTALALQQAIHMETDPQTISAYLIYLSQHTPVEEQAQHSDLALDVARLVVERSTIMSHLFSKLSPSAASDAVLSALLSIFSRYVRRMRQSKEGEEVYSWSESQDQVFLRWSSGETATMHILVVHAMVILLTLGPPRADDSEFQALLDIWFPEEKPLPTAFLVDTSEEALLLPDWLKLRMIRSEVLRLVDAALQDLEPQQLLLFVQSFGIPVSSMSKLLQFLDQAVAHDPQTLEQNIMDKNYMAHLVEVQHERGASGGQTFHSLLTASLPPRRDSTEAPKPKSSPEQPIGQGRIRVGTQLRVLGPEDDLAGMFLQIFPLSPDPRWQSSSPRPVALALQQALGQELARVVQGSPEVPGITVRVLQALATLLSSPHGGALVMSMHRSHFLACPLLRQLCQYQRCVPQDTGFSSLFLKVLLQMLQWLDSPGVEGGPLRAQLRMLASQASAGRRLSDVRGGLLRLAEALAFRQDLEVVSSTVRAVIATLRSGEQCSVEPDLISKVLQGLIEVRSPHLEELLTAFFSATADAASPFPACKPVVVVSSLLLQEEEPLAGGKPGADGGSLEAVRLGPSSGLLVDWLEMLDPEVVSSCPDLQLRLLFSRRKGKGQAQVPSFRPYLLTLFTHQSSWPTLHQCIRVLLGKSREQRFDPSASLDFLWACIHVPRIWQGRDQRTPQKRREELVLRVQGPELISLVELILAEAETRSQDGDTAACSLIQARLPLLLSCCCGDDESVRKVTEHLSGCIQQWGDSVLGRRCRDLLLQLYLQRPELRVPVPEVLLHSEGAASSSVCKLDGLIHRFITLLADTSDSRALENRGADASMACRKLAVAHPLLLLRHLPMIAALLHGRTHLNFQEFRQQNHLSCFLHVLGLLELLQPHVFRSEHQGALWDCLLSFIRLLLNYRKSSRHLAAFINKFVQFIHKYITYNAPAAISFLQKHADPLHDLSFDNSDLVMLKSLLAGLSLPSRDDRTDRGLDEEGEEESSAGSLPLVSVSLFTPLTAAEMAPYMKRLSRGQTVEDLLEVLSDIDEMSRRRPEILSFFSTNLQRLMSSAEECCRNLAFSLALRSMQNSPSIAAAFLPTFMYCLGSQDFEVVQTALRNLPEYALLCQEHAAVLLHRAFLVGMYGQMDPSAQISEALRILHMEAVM", "method_in_brief": "as §1"}, "[5]": {"target": "T5, AMMECR1L AMMECR1-like protein (Homo sapiens, UniProt Q6DCA0)", "T5 construct": "200 μL of lysate containing 5 mg/ml proteome was treated with 2 μL of 100× compound stock; endogenous in cells", "T5 sequence (Q6DCA0 whole entry)": "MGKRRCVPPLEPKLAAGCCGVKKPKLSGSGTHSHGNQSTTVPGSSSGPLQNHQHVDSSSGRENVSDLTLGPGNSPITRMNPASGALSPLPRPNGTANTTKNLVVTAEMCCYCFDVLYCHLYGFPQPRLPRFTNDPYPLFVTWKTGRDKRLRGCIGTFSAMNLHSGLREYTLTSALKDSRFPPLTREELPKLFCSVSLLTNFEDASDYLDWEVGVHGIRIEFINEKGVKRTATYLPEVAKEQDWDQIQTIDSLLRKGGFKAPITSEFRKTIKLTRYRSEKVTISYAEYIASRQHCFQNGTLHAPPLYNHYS", "method_in_brief": "as §1"}, "[6]": {"target": "T6, DTL Denticleless protein homolog (Homo sapiens, UniProt Q9NZJ0)", "T6 construct": "Cells were resuspended in cold PBS on ice and sonicated with a probe sonicator to achieve lysis; endogenous in cells", "method_in_brief": "as §1"}, "[7]": {"target": "T7, VDAC2 Voltage-dependent anion-selective channel protein (Homo sapiens, UniProt P45880)", "T7 construct": "Cells were resuspended in cold PBS on ice and sonicated with a probe sonicator to achieve lysis; endogenous in cells", "T7 sequence (P45880 whole entry)": "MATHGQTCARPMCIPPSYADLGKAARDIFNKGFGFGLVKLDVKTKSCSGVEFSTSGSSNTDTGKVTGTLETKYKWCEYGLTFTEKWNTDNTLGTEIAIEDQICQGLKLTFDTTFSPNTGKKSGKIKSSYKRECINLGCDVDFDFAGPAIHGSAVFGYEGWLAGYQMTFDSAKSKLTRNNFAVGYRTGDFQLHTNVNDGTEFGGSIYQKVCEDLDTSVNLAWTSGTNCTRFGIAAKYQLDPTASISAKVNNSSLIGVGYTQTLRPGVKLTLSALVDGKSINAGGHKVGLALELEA", "method_in_brief": "as §1"}, "[8]": {"target": "T8, KEAP1 Kelch-like ECH-associated protein 1 (Homo sapiens, UniProt Q14145)", "T8 construct": "Cells were resuspended in cold PBS on ice and sonicated with a probe sonicator to achieve lysis; endogenous in cells", "details": "KEAP1 Res# 288, uniprot Q14145", "method_in_brief": "as §1"}, "[9]": {"target": "T9, VPRBP Protein VPRBP (Homo sapiens, UniProt Q9Y4B6)", "T9 construct": "Cells were resuspended in cold PBS on ice and sonicated with a probe sonicator to achieve lysis; endogenous in cells", "T9 sequence (Q9Y4B6 whole entry)": "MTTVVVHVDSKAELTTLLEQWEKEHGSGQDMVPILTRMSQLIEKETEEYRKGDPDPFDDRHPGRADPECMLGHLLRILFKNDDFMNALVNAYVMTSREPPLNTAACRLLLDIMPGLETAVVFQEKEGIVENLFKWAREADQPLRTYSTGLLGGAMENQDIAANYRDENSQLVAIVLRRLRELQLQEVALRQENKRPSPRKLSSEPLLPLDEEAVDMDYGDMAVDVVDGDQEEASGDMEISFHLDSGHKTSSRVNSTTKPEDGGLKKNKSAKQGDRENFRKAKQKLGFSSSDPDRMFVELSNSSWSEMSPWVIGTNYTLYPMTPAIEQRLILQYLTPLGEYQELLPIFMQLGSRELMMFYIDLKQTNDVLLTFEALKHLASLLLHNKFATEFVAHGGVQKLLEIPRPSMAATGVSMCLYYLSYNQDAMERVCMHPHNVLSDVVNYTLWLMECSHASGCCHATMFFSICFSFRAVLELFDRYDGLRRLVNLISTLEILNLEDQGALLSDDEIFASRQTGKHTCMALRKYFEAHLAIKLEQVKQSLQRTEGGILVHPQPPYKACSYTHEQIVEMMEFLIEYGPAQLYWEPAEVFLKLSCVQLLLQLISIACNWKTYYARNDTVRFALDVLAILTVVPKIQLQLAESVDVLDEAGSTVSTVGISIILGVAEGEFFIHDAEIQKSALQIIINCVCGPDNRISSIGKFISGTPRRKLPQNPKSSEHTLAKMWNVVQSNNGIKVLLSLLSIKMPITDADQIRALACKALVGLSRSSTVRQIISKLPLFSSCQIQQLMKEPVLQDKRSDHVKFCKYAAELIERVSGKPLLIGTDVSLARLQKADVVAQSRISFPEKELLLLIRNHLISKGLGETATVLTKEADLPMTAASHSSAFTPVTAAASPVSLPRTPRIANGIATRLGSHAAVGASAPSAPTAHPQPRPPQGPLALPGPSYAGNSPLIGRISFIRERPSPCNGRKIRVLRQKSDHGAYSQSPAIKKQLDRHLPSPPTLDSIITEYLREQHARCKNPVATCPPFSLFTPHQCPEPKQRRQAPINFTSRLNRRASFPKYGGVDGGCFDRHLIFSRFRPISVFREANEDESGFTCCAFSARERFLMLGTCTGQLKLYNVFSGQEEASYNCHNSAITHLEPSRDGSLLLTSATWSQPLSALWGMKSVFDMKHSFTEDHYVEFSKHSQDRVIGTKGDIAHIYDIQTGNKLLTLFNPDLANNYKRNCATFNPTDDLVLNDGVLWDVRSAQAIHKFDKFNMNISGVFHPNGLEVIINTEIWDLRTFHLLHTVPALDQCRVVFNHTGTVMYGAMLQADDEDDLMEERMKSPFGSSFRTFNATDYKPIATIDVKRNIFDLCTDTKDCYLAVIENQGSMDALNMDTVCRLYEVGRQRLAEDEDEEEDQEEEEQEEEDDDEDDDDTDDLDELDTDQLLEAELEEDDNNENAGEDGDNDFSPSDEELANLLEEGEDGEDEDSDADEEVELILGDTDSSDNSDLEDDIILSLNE", "method_in_brief": "as §1"}, "[10]": {"target": "T10, VDAC3 Voltage-dependent anion-selective channel protein (Homo sapiens, UniProt Q9Y277)", "T10 construct": "Cells were resuspended in cold PBS on ice and sonicated with a probe sonicator to achieve lysis; endogenous in cells", "T10 sequence (Q9Y277 whole entry)": "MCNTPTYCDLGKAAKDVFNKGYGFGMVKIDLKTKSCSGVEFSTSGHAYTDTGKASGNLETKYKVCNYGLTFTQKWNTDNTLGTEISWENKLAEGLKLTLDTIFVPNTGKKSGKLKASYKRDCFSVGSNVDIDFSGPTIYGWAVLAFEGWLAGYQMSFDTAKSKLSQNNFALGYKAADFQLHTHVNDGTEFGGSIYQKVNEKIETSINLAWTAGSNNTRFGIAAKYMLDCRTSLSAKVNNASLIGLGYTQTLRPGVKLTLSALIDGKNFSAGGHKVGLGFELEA", "details": "VDAC3 Res# 229, uniprot Q9Y277", "method_in_brief": "as §1"}, "[11]": {"target": "T11, RNF213 E3 ubiquitin-protein ligase RNF213 (Homo sapiens, UniProt Q63HN8)", "T11 construct": "Cells were resuspended in cold PBS on ice and sonicated with a probe sonicator to achieve lysis; endogenous in cells", "method_in_brief": "as §1"}, "[12]": {"target": "T12, L3MBTL3 Lethal(3)malignant brain tumor-like protein 3 (Homo sapiens, UniProt Q96JM7)", "T12 construct": "Cells were resuspended in cold PBS on ice and sonicated with a probe sonicator to achieve lysis; endogenous in cells", "details": "L3MBTL3 Res# 233, uniprot Q96JM7", "method_in_brief": "as §1"}, "[13]": {"target": "T13, MYCBP2 E3 ubiquitin-protein ligase MYCBP2 (Homo sapiens, UniProt O75592)", "T13 construct": "Cells were resuspended in cold PBS on ice and sonicated with a probe sonicator to achieve lysis; endogenous in cells", "method_in_brief": "as §1"}},
  "data": [
    {"compound": "C=CC(=O)N(c1ccccc1)c1ccc(Br)cc1", "note": "[KB05]", "values": [
      {"measurement": "KB05_100 uM_percent_inhibition", "setting": "[1]; 100 uM", "value": 7, "unit": "%"},
      {"measurement": "inhibition at 100 µM", "setting": "[1]; read-out: KB05_100 uM_percent_inhibition", "value": 9, "unit": "%"},
      {"measurement": "inhibition at 500 µM", "setting": "[2]", "value": 31, "unit": "%"}
    ]},
    {"compound": "O=C(CCl)Nc1cc(C(F)(F)F)cc(C(F)(F)F)c1", "note": "[KBO3]", "values": [
      {"measurement": "Liganded", "setting": "[3]; CTSC Res# 258, uniprot P53634", "value": "YES"},
      {"measurement": "100 Max", "setting": "[3]; uniprot P53634", "value": 76.05},
      {"measurement": "100 ave", "setting": "[3]; uniprot P53634", "value": 76.05},
      {"measurement": "500 Max", "setting": "[3]; uniprot P53634", "value": 95.44},
      {"measurement": "500 ave", "setting": "[3]; uniprot P53634", "value": 95.44},
      {"measurement": "Liganded", "setting": "[4]; INTS1 Res# 1534, uniprot Q8N201", "value": "YES"},
      {"measurement": "100 Max", "setting": "[4]; uniprot Q8N201", "value": 51.25},
      {"measurement": "100 ave", "setting": "[4]; uniprot Q8N201", "value": 36.495},
      {"measurement": "500 Max", "setting": "[4]; uniprot Q8N201", "value": 77.65},
      {"measurement": "500 ave", "setting": "[4]; uniprot Q8N201", "value": 70.05},
      {"measurement": "Liganded", "setting": "[5]; AMMECR1L Res# 153, uniprot Q6DCA0", "value": "YES"},
      {"measurement": "100 Max", "setting": "[5]; uniprot Q6DCA0", "value": 91.46},
      {"measurement": "100 ave", "setting": "[5]; uniprot Q6DCA0", "value": 91.46},
      {"measurement": "500 Max", "setting": "[5]; uniprot Q6DCA0", "value": 85.74},
      {"measurement": "500 ave", "setting": "[5]; uniprot Q6DCA0", "value": 85.74}
    ]},
    {"compound": "COc1ccc2c(c1)CCCN2C(=O)CCl", "note": "[KB02]", "values": [
      {"measurement": "Liganded", "setting": "[6]; DTL Res# 136, uniprot Q9NZJ0", "value": "YES"},
      {"measurement": "Liganded", "setting": "[6]; DTL Res# 141, uniprot Q9NZJ0", "value": "YES"},
      {"measurement": "Liganded", "setting": "[7]; VDAC2 Res# 210, uniprot P45880", "value": "YES"},
      {"measurement": "Liganded", "setting": "[7]; VDAC2 Res# 227, uniprot P45880", "value": "YES"},
      {"measurement": "Liganded", "setting": "[8]", "value": "YES"},
      {"measurement": "Liganded", "setting": "[9]; VPRBP Res# 69, uniprot Q9Y4B6", "value": "YES"},
      {"measurement": "Liganded", "setting": "[9]; VPRBP Res# 967, uniprot Q9Y4B6", "value": "YES"},
      {"measurement": "Liganded", "setting": "[10]", "value": "YES"},
      {"measurement": "Liganded", "setting": "[11]; RNF213 Res# 1510, uniprot Q63HN8", "value": "YES"},
      {"measurement": "Liganded", "setting": "[11]; RNF213 Res# 4258, uniprot Q63HN8", "value": "YES"},
      {"measurement": "Liganded", "setting": "[11]; RNF213 Res# 4407, uniprot Q63HN8", "value": "YES"},
      {"measurement": "Liganded", "setting": "[12]", "value": "YES"},
      {"measurement": "Liganded", "setting": "[13]; MYCBP2 Res# 1131, uniprot O75592", "value": "YES"},
      {"measurement": "Liganded", "setting": "[13]; MYCBP2 Res# 3152, uniprot O75592", "value": "YES"}
    ]}
  ]
}
